Reference: patent US6486198B1, “Compounds and methods for the treatment of post traumatic stress disorder” (priority 1999, dated 2002)

Legend:
[1] = system: seizures in rodent models of epilepsy; conditions: several rodent models; cited from earlier work
kindled epilepsy = conditions: in vivo; cited from earlier work
[2] = system: DSM-IV PTSD criterion B symptoms of nightmares and intrusions (intrusive recollections/flashbacks); assay: Naturalistic add-on/monotherapy topiramate trial in chronic PTSD patients; patient self-report of partial/full response of nightmares and intrusions (LOCF); type: in vivo, human
Text: Thirty five (35) patients meeting DSM-IV criteria for chronic post-traumatic stress disorder (PTSD) were selected for a study of the effects of topiramate administration. […] The group with hallucinatory PTSD experienced auditory and/or visual hallucinations containing content specifically associated with identified traumatic events. Whether these were PTSD “flashbacks” or psychotic experiences were at times difficult to ascertain due to fluctuations in reality testing the hallucinations. For this reason, prior to being screened for PTSD, some patients had received psychiatric diagnoses of psychotic disorders despite meeting full diagnostic criteria for PTSD.
Topiramate was added naturalistically to existing pharmacotherapy (see Table 1 for concomitant medications at start of trial), starting at 25 mglday and increasing whenever possible by 25 to 50 mg/day every 3 to 4 days to clinical response. Target symptoms were DSM-IV PTSD criterion B symptoms of nightmares (N =24) and intrusions (intrusive recollections/flashbacks, N=35) involving re-experiencing of traumas. Definitions of improvement, as assessed from patient self-report, included “partial response” as “definite reduction in intensity and frequency of nightmares or intrusions”, and “full response” as “complete cessation of nightmares and intrusions for a sustained period”. Following the seminal observations, in order to systematically identify responsive symptoms, the next 17 patients completed a self-report scale, the PTSD Checklist—Civilian Version (PCL-C)15, at baseline and at 4 weeks after starting topiramate. The patients were instructed to complete the PCL-C for experiences corresponding to traumas consistent with DSM-IV criterion A for PTSD. Paired ttest scores for the PCL-C were calculated with Jandel SigmaStat® v. 2.0.
Response assessment, summarized in Table 4, used the Last Observation Carried Forward (LOCF) method, which includes all patients who entered the trial and their last reported condition while under active treatment. Overall, topiramate suppressed nightmares in 79% of patients ([…]; 5/28 partially), and intrusions in 86% (22/35 fully; 8/35 partially). Globally (i.e., in terms of suppression of both nightmares and intrusions), 22 patients (63%) reported a full response and 8 patients (23%) a partial response. Five patients discontinued without response, 1 at 5 days, and the remaining 4 after 4 weeks. The non-hallucinatory subgroup achieved a higher response rate (full: 79%; full/partial: 89%). All full responses occurred in the non-hallucinatory subgroup. Benefit usually occurred within 2 to 3 days of reaching an effective dose. A full response to topiramate was reported for 10 patients within 1 week of treatment, and for 3 additional patients by the third week of treatment.

[3] = All Patients (N = 35), both nightmares and intrusions
[4] = All Patients (N = 35), both nightmares and intrusions, listed as topiramate
[5] = All Patients (N = 35), either nightmares or intrusions
[6] = All Patients (N = 35), either nightmares or intrusions, listed as topiramate
[7] = All Patients (N = 35), listed as topiramate
[8] = All Patients (N = 35), partial + full response
[9] = All Patients (N = 35), partial + full response, listed as topiramate
[10] = Non-Hallucinatory PTSD, Bipolar Disorder (N = 8)
[11] = Non-Hallucinatory PTSD, Bipolar Disorder (N = 8), listed as topiramate
[12] = Non-Hallucinatory PTSD, Non-Bipolar Disorder (N = 20)
[13] = Non-Hallucinatory PTSD, Non-Bipolar Disorder (N = 20), listed as topiramate
[14] = Patients with Hallucinatory PTSD (N = 7)
[15] = Patients with Hallucinatory PTSD (N = 7), listed as topiramate
[16] = Patients with Non-Hallucinatory PTSD, Total (N + 28)
[17] = Patients with Non-Hallucinatory PTSD, Total (N + 28), listed as topiramate

CC1(C)O[C@@H]2[C@@H](CO[C@@]3(COS(N)(=O)=O)OC(C)(C)O[C@@H]23)O1 [Topiramate, 2,3:4,5-bis-O-(1-methylethylidene)-β-D-fructopyranose sulfamate]
Seizure block in rodent models of epilepsy [1]: effectively block seizures
Seizure block in animal model of kindled epilepsy (kindled epilepsy): effectively block seizures
Share of partial responders with response at a dosage of 75 mg/day or less ([2]; 75 mg/day or less): 95%
Share of full responders with response at a dosage of 100 mg/day or less ([2]; 100 mg/day or less): 91%
Patients discontinued without response ([2]; 1 at 5 days, remaining 4 after 4 weeks): Five
Dosage of topiramate, Full response, mean ± SD ([2]; All Patients (N = 35)): 78.6 mg/day
Dosage of topiramate, Full response, median ([2]; All Patients (N = 35)): (50.0) mg/day
Dosage of topiramate, Partial response (threshold dosage), mean ± SD ([2]; All Patients (N = 35)): 41.7 mg/day
Dosage of topiramate, Partial response, median ([2]; All Patients (N = 35)): (25.0) mg/day
Suppression of intrusions, Full (number of patients) ([2]; All Patients (N = 35)): 22
Suppression of intrusions, Partial (number of patients) ([2]; All Patients (N = 35)): 8
Suppression of nightmares, Full (number of patients) ([2]; All Patients (N = 35)): 14
Suppression of nightmares, Partial (number of patients) ([2]; All Patients (N = 35)): 5
Time to onset of response, Full, mean ± SD [2, 3]: 35.3 days
Time to onset of response, Full, median [2, 3]: (8.0) days
Time to onset of response, Full, mean ± SD [2, 4]: 35 ± 48.6 days
Time to onset of response, Full, median [2, 4]: 8.0 days
Time to onset of response, Partial, mean ± SD [2, 5]: 10.9 days
Time to onset of response, Partial, median [2, 5]: (4.0) days
Time to onset of response, Partial, mean ± SD [2, 6]: 11 ± 13.1 days
Time to onset of response, Partial, median [2, 6]: 4.0 days
Dosage of topiramate, Full response, mean ± SD [2, 7]: 79 ± 113.8 mg/day
Dosage of topiramate, Full response, median [2, 7]: 50.0 mg/day
Dosage of topiramate, Partial response (threshold dosage), mean ± SD [2, 7]: 42 ± 31.7 mg/day
Dosage of topiramate, Partial response, median [2, 7]: 25.0 mg/day
Suppression of intrusions (N = 35) [2, 8]: 86%
Suppression of nightmares (N = 24) [2, 8]: 79%
Suppression of intrusions (N = 35) [2, 9]: 86%
Suppression of nightmares (N = 24) [2, 9]: 79%
Dosage of topiramate, Full response, mean ± SD [2, 10]: 154.2 mg/day
Dosage of topiramate, Full response, median [2, 10]: (37.5) mg/day
Dosage of topiramate, Partial response (threshold dosage), mean ± SD [2, 10]: 58.3 ± 14.4 mg/day
Dosage of topiramate, Partial response, median [2, 10]: (50.0) mg/day
Suppression of intrusions (N = 35) [2, 10]: 88% (7/8)
Suppression of intrusions, Full (number of patients) [2, 10]: 6
Suppression of intrusions, Partial (number of patients) [2, 10]: 1
Suppression of nightmares (N = 24) [2, 10]: 83% (5/6)
Suppression of nightmares, Full (number of patients) [2, 10]: 4
Suppression of nightmares, Partial (number of patients) [2, 10]: 1
Time to onset of response, Full, mean ± SD [2, 10]: 43.3 ± 62.5 days
Time to onset of response, Full, median [2, 10]: (6.0) days
Time to onset of response, Partial, mean ± SD [2, 10]: 17.3 ± 13.5 days
Time to onset of response, Partial, median [2, 10]: (17.0) days
Dosage of topiramate, Full response, mean ± SD [2, 11]: 154 ± 200.9 mg/day
Dosage of topiramate, Full response, median [2, 11]: 37.5 mg/day
Dosage of topiramate, Partial response (threshold dosage), mean ± SD [2, 11]: 58 ± 14.4 mg/day
Dosage of topiramate, Partial response, median [2, 11]: 50.0 mg/day
Dosage of topiramate, Full response, mean ± SD [2, 12]: 48.3 mg/day
Dosage of topiramate, Full response, median [2, 12]: (50.0) mg/day
Dosage of topiramate, Partial response (threshold dosage), mean ± SD [2, 12]: 26.9 mg/day
Dosage of topiramate, Partial response, median [2, 12]: (25.0) mg/day
Suppression of intrusions (N = 35) [2, 12]: 90%
Suppression of intrusions, Full (number of patients) [2, 12]: 16
Suppression of intrusions, Partial (number of patients) [2, 12]: 2
Suppression of nightmares (N = 24) [2, 12]: 85%
Suppression of nightmares, Full (number of patients) [2, 12]: 10
Suppression of nightmares, Partial (number of patients) [2, 12]: 1
Time to onset of response, Full, mean ± SD [2, 12]: 32.1 days
Time to onset of response, Full, median [2, 12]: (10.0) days
Time to onset of response, Partial, mean ± SD [2, 12]: 8.6 days
Time to onset of response, Partial, median [2, 12]: (3.5) days
Dosage of topiramate, Full response, mean ± SD [2, 13]: 48 ± 25.4 mg/day
Dosage of topiramate, Full response, median [2, 13]: 50.0 mg/day
Dosage of topiramate, Partial response (threshold dosage), mean ± SD [2, 13]: 30 ± 11.2 mg/day
Dosage of topiramate, Partial response, median [2, 13]: 25.0 mg/day
Dosage of topiramate, Partial response (threshold dosage), mean ± SD [2, 14]: 70.0 ± 51.2 mg/day
Dosage of topiramate, Partial response, median [2, 14]: (75.0) mg/day
Suppression of intrusions (N = 35) [2, 14]: 71% (5/7)
Suppression of intrusions, Full (number of patients) [2, 14]: 0
Suppression of intrusions, Partial (number of patients) [2, 14]: 5
Suppression of nightmares (N = 24) [2, 14]: 60% (3/5)
Suppression of nightmares, Full (number of patients) [2, 14]: 0
Suppression of nightmares, Partial (number of patients) [2, 14]: 3
Time to onset of response, Partial, mean ± SD [2, 14]: 12.6 ± 15.7 days
Time to onset of response, Partial, median [2, 14]: (7.0) days
Dosage of topiramate, Partial response (threshold dosage), mean ± SD [2, 15]: 70.0 ± 51.2 mg/day
Dosage of topiramate, Partial response, median [2, 15]: 75.0 mg/day
Time to onset of response, Partial, mean ± SD [2, 15]: 13 ± 15.7 days
Time to onset of response, Partial, median [2, 15]: 7.0 days
Dosage of topiramate, Full response, mean ± SD [2, 16]: 78.6 mg/day
Dosage of topiramate, Full response, median [2, 16]: (50.0) mg/day
Dosage of topiramate, Partial response (threshold dosage), mean ± SD [2, 16]: 32.8 mg/day
Dosage of topiramate, Partial response, median [2, 16]: (25.0) mg/day
Suppression of intrusions (N = 35) [2, 16]: 89%
Suppression of intrusions, Full (number of patients) [2, 16]: 22
Suppression of intrusions, Partial (number of patients) [2, 16]: 3
Suppression of nightmares (N = 24) [2, 16]: 84%
Suppression of nightmares, Full (number of patients) [2, 16]: 14
Suppression of nightmares, Partial (number of patients) [2, 16]: 2
Time to onset of response, Full, mean ± SD [2, 16]: 35.3 days
Time to onset of response, Full, median [2, 16]: (8.0) days
Time to onset of response, Partial, mean ± SD [2, 16]: 10.3 days
Time to onset of response, Partial, median [2, 16]: (4.0) days
Time to onset of response, Partial, mean ± SD [2, 17]: 10 ± 12.7 days
Time to onset of response, Partial, median [2, 17]: 4.0 days
Global full response rate (suppression of both nightmares and intrusions) ([2]; all 35 patients): 63%
Global full response, number of patients ([2]; all 35 patients): 22 patients
Global partial response rate ([2]; all 35 patients): 23%
Global partial response, number of patients ([2]; all 35 patients): 8 patients
Response rate, full/partial ([2]; all patients): 86%
Additional patients reporting a full response by the third week of treatment ([2]; by the third week): 3 patients
Response rate, full ([2]; hallucinatory group): 0%
Response rate, partial ([2]; hallucinatory group): 83%
Response rate, full ([2]; non-hallucinatory subgroup): 79%
Response rate, full/partial ([2]; non-hallucinatory subgroup): 89%
Patients reporting a full response within 1 week of treatment ([2]; within 1 week of treatment): 10 patients
